Measured values taken from ChEMBL document CHEMBL4402516, “5-Lipoxygenase as a drug target: A review on trends in inhibitors structural design, SAR and mechanism based approach” (Bioorg Med Chem, 2019).
Each block holds one compound with its values, some of them ahead of it.

Assays:
[1] = biological target: T1, Polyunsaturated fatty acid 5-lipoxygenase (Rattus norvegicus) (UniProt P12527); test: Inhibition of rat 5-LOX expressed in insect sf21 cells at 1 uM preincubated for 4 mins followed by Arachidonic acid addition and measured after 4 mins by FOX assay relative to control
T1 sequence (whole entry): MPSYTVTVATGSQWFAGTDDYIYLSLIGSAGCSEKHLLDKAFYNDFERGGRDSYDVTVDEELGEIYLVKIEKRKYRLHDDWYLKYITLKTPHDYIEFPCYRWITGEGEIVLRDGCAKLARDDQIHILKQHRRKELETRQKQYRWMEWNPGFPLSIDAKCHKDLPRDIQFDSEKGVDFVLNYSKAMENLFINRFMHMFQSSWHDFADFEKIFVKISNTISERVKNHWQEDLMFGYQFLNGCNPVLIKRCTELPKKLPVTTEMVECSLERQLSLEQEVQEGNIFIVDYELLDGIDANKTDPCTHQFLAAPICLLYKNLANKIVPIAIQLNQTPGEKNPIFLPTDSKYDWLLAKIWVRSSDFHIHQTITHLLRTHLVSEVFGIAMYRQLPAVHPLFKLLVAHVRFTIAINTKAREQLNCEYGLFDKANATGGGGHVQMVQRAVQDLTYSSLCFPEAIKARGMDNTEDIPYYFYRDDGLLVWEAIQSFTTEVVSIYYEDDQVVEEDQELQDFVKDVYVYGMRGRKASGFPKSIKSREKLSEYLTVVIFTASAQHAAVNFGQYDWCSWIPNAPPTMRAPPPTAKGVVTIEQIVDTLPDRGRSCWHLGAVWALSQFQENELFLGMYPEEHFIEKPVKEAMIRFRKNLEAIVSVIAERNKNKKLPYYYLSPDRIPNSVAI

[2] = biological target: T1, Polyunsaturated fatty acid 5-lipoxygenase (Rattus norvegicus); test: Inhibition of 5-LOX in rat RBL-1 cells assessed as reduction in LTB4 secretion at 1 uM preincubated for 10 mins followed by A23187 stimulation and measured after 15 mins by EIA; type: cell-based
[3] = biological target: T2, Polyunsaturated fatty acid 5-lipoxygenase (Homo sapiens, UniProt P09917); test: Inhibition of 5-LOX in A23187-stimulated human neutrophils preincubated for 15 mins followed by A23187 stimulation and measured after 10 mins
T2 sequence (P09917 whole entry): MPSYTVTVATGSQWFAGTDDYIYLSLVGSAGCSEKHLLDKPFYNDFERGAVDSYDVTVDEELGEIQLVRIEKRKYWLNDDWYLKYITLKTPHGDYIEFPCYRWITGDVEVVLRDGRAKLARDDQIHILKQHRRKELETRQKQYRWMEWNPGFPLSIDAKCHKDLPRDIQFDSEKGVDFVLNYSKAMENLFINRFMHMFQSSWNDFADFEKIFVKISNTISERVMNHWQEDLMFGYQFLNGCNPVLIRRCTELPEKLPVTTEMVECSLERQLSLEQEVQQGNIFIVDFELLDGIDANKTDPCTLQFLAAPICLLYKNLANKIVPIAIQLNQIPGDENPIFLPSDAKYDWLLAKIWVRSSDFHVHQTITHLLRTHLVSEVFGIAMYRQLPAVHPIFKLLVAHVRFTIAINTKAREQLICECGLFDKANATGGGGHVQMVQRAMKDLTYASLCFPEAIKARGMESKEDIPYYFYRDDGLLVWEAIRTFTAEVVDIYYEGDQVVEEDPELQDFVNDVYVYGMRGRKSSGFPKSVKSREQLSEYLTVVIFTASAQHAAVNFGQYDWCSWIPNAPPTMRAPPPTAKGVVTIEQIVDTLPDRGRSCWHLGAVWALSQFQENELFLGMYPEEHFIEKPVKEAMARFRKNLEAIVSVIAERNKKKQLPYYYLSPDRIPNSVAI

[4] = biological target: T2, Polyunsaturated fatty acid 5-lipoxygenase; test: Inhibition of recombinant human 5-LOX expressed in Escherichia coli BL21 (DE3) cells preincubated for 10 mins followed by arachidonic acid addition and measured after 10 mins by RP-HPLC method
[5] = biological target: T2, Polyunsaturated fatty acid 5-lipoxygenase; test: Competitive inhibition of recombinant human 5-LOX expressed in Escherichia coli BL21 cells using Arachidonic acid as substrate by UV absorbance
[6] = Inhibition of potato 5-LOX using linoleic acid as substrate measured at 2 min by UV absorbance method; parameters: species or system Solanum tuberosum
[7] = biological target: T2, Polyunsaturated fatty acid 5-lipoxygenase; test: Inhibition of human PMNL 5-LOX using arachidonic acid as substrate after 5 mins by HPLC method
[8] = biological target: T2, Polyunsaturated fatty acid 5-lipoxygenase; test: Inhibition of human leukocyte 5-LOX using arachidonic acid as substrate by UV/Vis spectrophotometry
[9] = biological target: T3, Polyunsaturated fatty acid 5-lipoxygenase (Homo sapiens) (UniProt P09917); test: Inhibition of 5-LOX in human whole blood preincubated for 10 mins followed by Arachidonic acid and ATP addition and measured after 20 mins by H2DCFD dye based fluorescence method; type: tissue-based
T3 sequence (whole entry): T2 sequence (P09917 whole entry)

[10] = biological target: T2, Polyunsaturated fatty acid 5-lipoxygenase; test: Inhibition of recombinant human 5-LOX expressed in baculovirus-infected insect cells preincubated for 10 mins followed by Arachidonic acid and ATP addition and measured after 20 mins by H2DCFD dye based fluorescence method
[11] = biological target: T4, Polyunsaturated fatty acid 5-lipoxygenase (Rattus norvegicus, UniProt P12527); test: Inhibition of rat 5-LOX expressed in insect sf21 cells preincubated for 4 mins followed by Arachidonic acid addition and measured after 4 mins by FOX assay
T4 sequence (P12527 whole entry): T1 sequence (whole entry)

[12] = Inhibition of soybean 15-LOX by spectrophotometric method; parameters: species or system Glycine max
[13] = biological target: T2, Polyunsaturated fatty acid 5-lipoxygenase; test: Inhibition of 5-LOX (unknown origin) after 5 mins by colorimetric method
MCF7 = test: Antiproliferative activity against human MCF7 cells by MTT assay; type: functional, cell-based
Glycine max = test: Inhibition of soybean 5-LOX at 100 uM incubated for 10 mins relative to control
[14] = biological target: T3, Polyunsaturated fatty acid 5-lipoxygenase (Homo sapiens); test: Inhibition of recombinant human 5-LOX expressed in Escherichia coli BL21 cells at 50 uM using arachidonic acid as substrate by UV-vis spectrophotometry relative to control
[15] = biological target: Prostaglandin E synthase/G/H synthase 2 (Homo sapiens) (UniProt P35354+O14684); test: Inhibition of COX2/mPGES1 in TNFalpha-induced human HeLa cells assessed as reduction in PGE2 production at 50 uM incubated for 3 hrs by EIA relative to control; type: cell-based
Prostaglandin E synthase/G/H synthase 2 (Homo sapiens), sequence (O14684 whole entry, looked up): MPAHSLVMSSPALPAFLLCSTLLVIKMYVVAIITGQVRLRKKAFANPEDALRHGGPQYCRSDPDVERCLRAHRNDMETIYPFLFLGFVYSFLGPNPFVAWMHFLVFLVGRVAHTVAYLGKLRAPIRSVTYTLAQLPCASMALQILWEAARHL
Prostaglandin E synthase/G/H synthase 2 (Homo sapiens), sequence (P35354 whole entry, looked up): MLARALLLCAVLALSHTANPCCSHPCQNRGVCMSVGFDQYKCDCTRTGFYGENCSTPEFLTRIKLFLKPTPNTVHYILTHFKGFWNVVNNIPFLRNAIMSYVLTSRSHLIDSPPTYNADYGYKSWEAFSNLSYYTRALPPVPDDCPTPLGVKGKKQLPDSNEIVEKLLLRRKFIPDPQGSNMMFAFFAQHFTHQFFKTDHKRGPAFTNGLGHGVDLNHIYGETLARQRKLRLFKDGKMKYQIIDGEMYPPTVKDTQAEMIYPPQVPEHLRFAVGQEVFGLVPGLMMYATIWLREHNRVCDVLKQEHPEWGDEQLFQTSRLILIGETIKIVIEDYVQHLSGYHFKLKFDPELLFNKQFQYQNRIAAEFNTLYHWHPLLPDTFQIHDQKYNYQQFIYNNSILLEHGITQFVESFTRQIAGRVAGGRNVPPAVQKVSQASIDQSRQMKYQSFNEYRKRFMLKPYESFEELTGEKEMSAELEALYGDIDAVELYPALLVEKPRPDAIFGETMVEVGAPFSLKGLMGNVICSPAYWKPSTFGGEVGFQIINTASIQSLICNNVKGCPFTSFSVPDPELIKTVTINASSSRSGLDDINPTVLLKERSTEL

inhibition [1]: 96% | inhibition [2]: 98%
SMILES: COc1ccc(/C=C2\SC(c3ccc4ccccc4c3)=NC2=O)cc1

IC50 [3]: 0.9 µM
SMILES: Cc1cccc(OC(=O)c2cc([N+](=O)[O-])cc([N+](=O)[O-])c2)c1

IC50 [4]: 0.1 µM
SMILES: O=C(NCCCCCCCCCNC(=O)c1cccc(O)c1O)c1cccc(O)c1O

IC50 [5]: 10 µM
SMILES: Clc1ccc(-c2cc(-c3c[nH]c4ccccc34)cc(-c3ccc(Cl)cc3)n2)cc1

IC50 [6]: 33.7 µM
SMILES: O=C(c1[nH]nc2c1CSc1sc(Br)cc1-2)N1CCN(c2ccccc2F)CC1

SMILES: C=CCc1ccc(O)c(OC)c1 [EUGENOL]
IC50 [7]: 26 µM

IC50 [8]: 0.17 µM
SMILES: Cc1ccc(S(=O)(=O)n2c(C(=O)C(=O)N3CCCC3)cc3ccccc32)cc1

IC50 [7]: 83 µM
SMILES: C=CCSCC=C [DIALLYL SULFIDE]

IC80 [9]: 0.37 µM | IC50 [10]: 0.229 µM
SMILES: Cn1nccc1-c1ccc(Sc2ccc(C3(C(N)=O)CCOCC3)cc2)cc1

IC50 [11]: 0.12 µM
SMILES: CC(C)=CCn1cc(/C=N/NC(N)=O)c2cc(Br)ccc21

SMILES: COc1cc(CNC(=O)CCCC/C=C/C(C)C)ccc1O [CAPSAICIN]
IC50 [7]: 56 µM

IC50 [12]: 10.3 µM
SMILES: CCCCCC(=O)c1c(O)cc(O)c(C/C=C(\C)CCC=C(C)C)c1O

SMILES: O=C/C=C/c1ccccc1
IC50 [7]: 35 µM

IC50 [13]: 48.3 µM
SMILES: Cc1cc(Nc2ncc(-c3ccc(F)cc3)o2)cc(C)c1O

IC50 (MCF7): 0.9 µM | inhibition (Glycine max): 68%
SMILES: NCCCC(=O)c1cc(=O)c2cc(F)ccc2o1

IC50 [7]: 54 µM
SMILES: O=C(/C=C/C=C/c1ccc2c(c1)OCO2)N1CCCCC1 [PIPERINE]

inhibition [14]: 74% | inhibition [15]: 66%
SMILES: CS(=O)(=O)NC(Cc1cc(I)c(OCc2ccon2)c(I)c1)C(=O)O (stereo unspecified)
